“Also recorded” adds a separate entry of the source.
Legend:
microorganisms [1] = test: Peptide activities: targeting/binding, antimicrobial, growth or phenotype altering (Tables 7, 8); type: cell-based; conditions: peptides having multiple activities
microorganisms [2] = test: Targeting peptide binding to target microorganisms (Tables 3, 10, 12); conditions: microorganism(s) the targeting peptide binds, preferably 1x PBS
microorganisms [3] = test: Morphology, biofilm and growth disrupting peptides (Table 5); type: cell-based; set-up: key: A: Peptide aggregates; B: Less hyphal formation; Clumps; Diffuse clumps and small polyps; F: Diffuse growth; H: Thin; I: Growth inhibition; Microcolony formation; Rippled; Small polyps; Thick; W: Halo formation on top, microlonies on bottom
Text: In certain embodiments peptides that induce alterations in phenotype or other biological activities can also be used as antimicrobial effector moieties.

[4] = binding in aqueous buffers varied with peptide solubility
[5] = binding in aqueous buffers that varied with peptide solubility

Substance	Activities (microorganisms [1])	Target(s) (microorganisms [2]; [4])	Organism, effect (microorganisms [3]; S. pneumoniae)	Organism, effect: MRSA (microorganisms [3]; MRSA)	further results
PF-C137: peptide having multiple activities (chain 1 QRMYWFKRGFETGDFSAGDTFAELK; chain 2 QRMYWFKRGFETGDFSAGDTFAELK; Peptide with targeting and/or antimicrobial activity)	G B	A. naeslundii; also recorded: F. nucleatum; also recorded: P. gingivalis; also recorded: S. mutans			Organism, effect (microorganisms [3]; F. nucleatum): F. nucleatum (T)
NTNDLLQAFELMGLGMAGVFIVLGILYIVAELLIKIFPVNN [PF-C194]	G B	A. naeslundii; also recorded: F. nucleatum; also recorded: P. gingivalis; also recorded: S. mutans; also recorded: T. denticola			Organism, effect (microorganisms [3]; F. nucleatum): F. nucleatum (T); Organism, effect (microorganisms [3]; P. gingivalis): P. gingivalis (T); Organism, effect (microorganisms [3]; S. mutans): S. mutans (F)
MQIFYIKTKIFLSFFLFLLIFSQCFYKIEE [PF-442]	G B	S. epidermidis; also recorded: E. coli; also recorded: C. albicans; also recorded: S. pneumoniae; also recorded: E. faecalis	S. pneumoniae (C)		Organism, effect (microorganisms [3]; MRSA): MRSA (M)
PF-045: peptide having multiple activities (LDINDYRSTY; Peptide with targeting and/or antimicrobial activity)	G B			MRSA (S)	Target(s) (microorganisms [2]; [5]): S. epidermidis; also recorded: E. coli; also recorded: E. faecalis; also recorded: C. jejuni
PF-405: peptide having multiple activities (chain 1 LVRIEVDDLEEWYERNFI; chain 2 LVRIEVDDLEEWYERNFI; Peptide with targeting and/or antimicrobial activity)	G B	S. epidermidis; also recorded: E. coli; also recorded: E. faecalis		MRSA (M)	
PF-363: peptide having multiple activities (chain 1 SMLSVTVMCLMHASVAANQAMEKKV; chain 2 SMLSVTVMCLMHASVAANQAMEKKV; Peptide with targeting and/or antimicrobial activity)	G B	B. subtilis; also recorded: E. coli; also recorded: P. aeruginosa; also recorded: C. albicans; also recorded: S. pneumoniae; also recorded: E. faecalis		MRSA (H)	Organism, effect: C. jejuni (microorganisms [3]; C. jejuni): C. jejuni (D); Organism, effect: E. coli (microorganisms [3]): E. coli (C); Organism, effect: E. faecalis (microorganisms [3]; E. faecalis): E. faecalis (D); Organism, effect: S. epidermidis (microorganisms [3]): S. epidermidis (S); Organism, effect: S. pneumoniae (microorganisms [3]; S. pneumoniae): S. pneumoniae (R)
PF-186: peptide having multiple activities (DADKNLSLERDRFAWRVAAP; Peptide with targeting and/or antimicrobial activity)	G B	S. epidermidis and M. luteus and E. coli and P. aeruginosa and MRSA and C. jeikeium			Organism, effect: C. jeikeium (microorganisms [3]): C. jeikeium (A); Organism, effect: S. epidermidis (microorganisms [3]): S. epidermidis (C)
PF-617: peptide having multiple activities (chain 1 PMNAAEPE; chain 2 PMNAAEPE; Peptide with targeting and/or antimicrobial activity)	G B	P. aeruginosa; also recorded: C. albicans	S. pneumoniae (I)		Organism, effect (microorganisms [3]; C. albicans): C. albicans (H); Organism, effect (microorganisms [3]; E. faecalis): E. faecalis (H)
PF-306: peptide having multiple activities (GCILPHKKDNYNYIMSKFQDLVKITSKK; Peptide with targeting and/or antimicrobial activity)	G B	C. difficile			Organism, effect: B. subtilis (microorganisms [3]; B. subtilis): B. subtilis (C)
PF-609: peptide having multiple activities (chain 1 TEIKLDNNEYLVLNLDDILGILK; chain 2 TEIKLDNNEYLVLNLDDILGILK; Peptide with targeting and/or antimicrobial activity)	G B	P. mirabilis; also recorded: E. coli; also recorded: S. pneumoniae	S. pneumoniae (R)		Organism, effect (microorganisms [3]; C. jejuni): C. jejuni (R); Organism, effect (microorganisms [3]; E. faecalis): E. faecalis (A); Organism, effect (microorganisms [3]; MRSA): MRSA (C)
PF-406: peptide having multiple activities (chain 1 YLEMNADYLSNMDIFDELWEKYLENNK; chain 2 YLEMNADYLSNMDIFDELWEKYLENNK; Peptide with targeting and/or antimicrobial activity)	G B	E. coli; also recorded: C. jejuni		MRSA (M)	Organism, effect: S. epidermidis (microorganisms [3]): S. epidermidis (C)
PF-350: peptide having multiple activities (LAVILRAIVY; Peptide with targeting and/or antimicrobial activity)	G B	S. epidermidis; also recorded: E. coli; also recorded: E. faecalis; also recorded: C. jeikeium; also recorded: C. jejuni		MRSA (C)	Organism, effect: E. coli (microorganisms [3]): E. coli (C); Organism, effect: S. epidermidis (microorganisms [3]): S. epidermidis (C)
PF-631: peptide having multiple activities (chain 1 LIIYFSKTGNTARATRQI; chain 2 LIIYFSKTGNTARATRQI; Peptide with targeting and/or antimicrobial activity)	G B	S. epidermidis and P. aeruginosa and C. albicans and MRSA and S. pneumoniae and E. faecalis and C. jeikeium	S. pneumoniae (I)		Organism, effect (microorganisms [3]; E. faecalis): E. faecalis (H)
PF-401: peptide having multiple activities (chain 1 YWLSRVTTGHSFAFEKPVPLSLTIK; chain 2 YWLSRVTTGHSFAFEKPVPLSLTIK; Peptide with targeting and/or antimicrobial activity)	G B	S. epidermidis and E. coli and P. aeruginosa and MRSA and E. faecalis and C. jejuni		MRSA (C)	Organism, effect: E. coli (microorganisms [3]): E. coli (R); Organism, effect: E. faecalis (microorganisms [3]; E. faecalis): E. faecalis (C); Organism, effect: S. epidermidis (microorganisms [3]): S. epidermidis (C)
PF-590: peptide having multiple activities (chain 1 YYQAKLFPLL; chain 2 YYQAKLFPLL; Peptide with targeting and/or antimicrobial activity)	G B	S. epidermidis; also recorded: M. luteus; also recorded: E. coli; also recorded: E. faecalis; also recorded: C. jeikeium			Organism, effect (microorganisms [3]; C. jejuni): C. jejuni (R)
PF-542: peptide having multiple activities (KKDNPSLNDQDKNAVLNLLALAK; Peptide with targeting and/or antimicrobial activity)	G B	C. jeikeium	S. pneumoniae (H)		
PF-434: peptide having multiple activities (chain 1 GQLLADKRPARDYNRK; chain 2 GQLLADKRPARDYNRK; Peptide with targeting and/or antimicrobial activity)	G B	S. epidermidis; also recorded: M. luteus; also recorded: S. pneumoniae; also recorded: C. jeikeium	S. pneumoniae (S)		
PF-C071: peptide having multiple activities (QVIVKIL; Peptide with targeting and/or antimicrobial activity)	G B	A. naeslundii; also recorded: F. nucleatum; also recorded: S. mutans			Organism, effect (microorganisms [3]; F. nucleatum): F. nucleatum (T)
PF-421: peptide having multiple activities (chain 1 KHCFEITDKTDVV; chain 2 KHCFEITDKTDVV; Peptide with targeting and/or antimicrobial activity)	G B	C. jeikeium	S. pneumoniae (H)		
PF-029: peptide having multiple activities (NSTNE; Peptide with targeting and/or antimicrobial activity)	G B			MRSA (M)	Target(s) (microorganisms [2]; [5]): S. epidermidis; also recorded: M. luteus; also recorded: C. albicans; also recorded: C. jejuni
LIQKGLNQTFIVVIRLNNFIKKS [PF-013]	G B			MRSA (R)	Target(s) (microorganisms [2]; [5]): M. luteus and P. mirabilis and E. coli and P. aeruginosa and MRSA and S. pneumoniae and C. jeikeium and C. jejuni; Organism, effect: C. jeikeium (microorganisms [3]): C. jeikeium (D); Organism, effect: M. luteus (microorganisms [3]; M. luteus): M. luteus (D); Organism, effect: S. epidermidis (microorganisms [3]): S. epidermidis (C)
PF-456: peptide having multiple activities (TCVKPRTIN; Peptide with targeting and/or antimicrobial activity)	G B	C. albicans and MRSA and E. faecalis and C. jeikeium and C. jejuni			Organism, effect (microorganisms [3]; C. jejuni): C. jejuni (A); Organism, effect (microorganisms [3]; E. faecalis): E. faecalis (A)
PF-470: peptide having multiple activities (PYSDSYATRPHWEQHRAR; Peptide with targeting and/or antimicrobial activity)	G B	M. luteus and E. coli and MRSA and E. faecalis and C. jeikeium and C. jejuni			Organism, effect (microorganisms [3]; C. jejuni): C. jejuni (A); Organism, effect (microorganisms [3]; E. faecalis): E. faecalis (A)

Source: patent publication US20110039763A1, “TARGETED ANTIMICROBIAL MOIETIES” (C3 JIAN, INC., priority 2009, published 2011)
